# In ChEMBL document CHEMBL2413072, “Synthesis and in vitro anticancer studies of novel C-2 arylidene congeners of lantadenes” (2013):
# How the values were obtained:
# Assay type in all cases: functional
# CCRF-CEM [1] = assay: Growth inhibition of human CCRF-CEM cells assessed as cell growth at 10 uM by sulforhodamine B assay; settings: read-out: Activity
# HCT-116 = assay: Growth inhibition of human HCT116 cells assessed as cell growth at 10 uM by sulforhodamine B assay; settings: read-out: Activity
# RXF 393 [2] = assay: Growth inhibition of human RXF393 cells assessed as cell growth at 10^-7 M by sulforhodamine B assay; settings: read-out: Activity
# DU-145 = assay: Growth inhibition of human DU145 cells assessed as cell growth at 10^-6 M by sulforhodamine B assay; settings: read-out: Activity
# [3] = Growth inhibition of human Hs 578T cells assessed as growth inhibition at 10 uM by sulforhodamine B assay; settings: read-out: GI
# BT-549 [4] = assay: Growth inhibition of human BT549 cells assessed as cell growth at 10^-8 M by sulforhodamine B assay; settings: read-out: Activity
# T47D [5] = assay: Growth inhibition of human T47D cells assessed as cell growth at 10 uM by sulforhodamine B assay; settings: read-out: Activity
# OVCAR-3 = assay: Growth inhibition of human OVCAR3 cells by sulforhodamine B assay
# A498 [6] = assay: Growth inhibition of human A498 cells assessed as cell growth at 10^-8 M by sulforhodamine B assay; settings: read-out: Activity
# OVCAR-5 = assay: Growth inhibition of human OVCAR5 cells assessed as cell growth at 10^-6 M by sulforhodamine B assay; settings: read-out: Activity
# A498 [7] = assay: Growth inhibition of human A498 cells assessed as cell growth at 10 uM by sulforhodamine B assay; settings: read-out: Activity
# BT-549 [8] = assay: Growth inhibition of human BT549 cells assessed as cell growth at 10 uM by sulforhodamine B assay; settings: read-out: Activity
# HOP-92 = assay: Growth inhibition of human HOP92 cells assessed as cell growth at 10^-8 M by sulforhodamine B assay; settings: read-out: Activity
# HT-29 = assay: Growth inhibition of human HT-29 cells assessed as cell growth at 10^-6 M by sulforhodamine B assay; settings: read-out: Activity
# T47D [9] = assay: Growth inhibition of human T47D cells assessed as cell growth at 10^-7 M by sulforhodamine B assay; settings: read-out: Activity
# UO-31 = assay: Growth inhibition of human UO31 cells assessed as growth inhibition at 10 uM by sulforhodamine B assay; settings: read-out: GI
# ACHN = assay: Growth inhibition of human ACHN cells assessed as growth inhibition at 10 uM by sulforhodamine B assay; settings: read-out: GI
# SF-539 [10] = assay: Growth inhibition of human SF539 cells by sulforhodamine B assay
# OVCAR-8 = assay: Growth inhibition of human OVCAR8 cells assessed as growth inhibition at 10 uM by sulforhodamine B assay; settings: read-out: GI
# UACC-62 = assay: Growth inhibition of human UACC62 cells by sulforhodamine B assay
# NCI-H460 = assay: Growth inhibition of human NCI-H460 cells assessed as cell growth at 10 uM by sulforhodamine B assay; settings: read-out: Activity
# LOX IMVI [11] = assay: Growth inhibition of human LOXIMVI cells assessed as cell growth at 10 uM by sulforhodamine B assay; settings: read-out: Activity
# 786-0 = assay: Growth inhibition of human 786-0 cells assessed as cell growth at 10^-6 M by sulforhodamine B assay; settings: read-out: Activity
# CCRF-CEM [12] = assay: Growth inhibition of human CCRF-CEM cells assessed as growth inhibition at 10 uM by sulforhodamine B assay; settings: read-out: GI
# [13] = Growth inhibition of human HCC2998 cells by sulforhodamine B assay
# SR = assay: Growth inhibition of human SR cells assessed as cell growth at 10 uM by sulforhodamine B assay; settings: read-out: Activity
# NCI-H322M = assay: Growth inhibition of human NCI-H322M cells assessed as cell growth at 10^-6 M by sulforhodamine B assay; settings: read-out: Activity
# LOX IMVI [14] = assay: Growth inhibition of human LOXIMVI cells assessed as growth inhibition at 10 uM by sulforhodamine B assay; settings: read-out: GI
# SK-MEL-28 = assay: Growth inhibition of human SK-MEL-28 cells assessed as cell growth at 10^-8 M by sulforhodamine B assay; settings: read-out: Activity
# SW-620 [15] = assay: Growth inhibition of human SW620 cells by sulforhodamine B assay
# SF-539 [16] = assay: Growth inhibition of human SF539 cells assessed as cell growth at 10^-8 M by sulforhodamine B assay; settings: read-out: Activity
# IGROV-1 = assay: Growth inhibition of human IGROV1 cells assessed as cell growth at 10^-4 M by sulforhodamine B assay; settings: read-out: Activity
# SW-620 [17] = assay: Growth inhibition of human SW620 cells assessed as cell growth at 10^-6 M by sulforhodamine B assay; settings: read-out: Activity
# NCI-H226 = assay: Growth inhibition of human NCI-H226 cells assessed as cell growth at 10 uM by sulforhodamine B assay; settings: read-out: Activity
# T47D [18] = assay: Growth inhibition of human T47D cells assessed as cell growth at 10^-6 M by sulforhodamine B assay; settings: read-out: Activity
# A549 = assay: Growth inhibition of human A549/ATCC cells by sulforhodamine B assay
# MCF7 = assay: Growth inhibition of human MCF7 cells assessed as cell growth at 10 uM by sulforhodamine B assay; settings: read-out: Activity
# M14 = assay: Growth inhibition of human M14 cells assessed as growth inhibition at 10 uM by sulforhodamine B assay; settings: read-out: GI
# SF-268 = assay: Growth inhibition of human SF268 cells assessed as growth inhibition at 10 uM by sulforhodamine B assay; settings: read-out: GI
# HOP-62 = assay: Growth inhibition of human HOP62 cells assessed as cell growth at 10^-8 M by sulforhodamine B assay; settings: read-out: Activity
# RXF 393 [19] = assay: Growth inhibition of human RXF393 cells assessed as growth inhibition at 10 uM by sulforhodamine B assay; settings: read-out: GI
# RXF 393 [20] = assay: Growth inhibition of human RXF393 cells assessed as cell growth at 10 uM by sulforhodamine B assay; settings: read-out: Activity
# SN12C = assay: Growth inhibition of human SN12C cells assessed as growth inhibition at 10 uM by sulforhodamine B assay; settings: read-out: GI
# [21] = read-out: LC50 (the source's name)
# [22] = read-out: pLC50 (the source's name) (converted)
smiles,measurement,setting,value
CC(C)=CC(=O)O[C@@H]1CC(C)(C)C[C@H]2C3=CC[C@@H]4[C@@]5(C)CCC(=O)C(C)(C)[C@@H]5CC[C@@]4(C)[C@]3(C)CC[C@@]12C(=O)O,growth at 10 µM,CCRF-CEM [1],25.3%
same,growth at 10 µM,HCT-116,26.6%
same,growth at 0.1 µM,RXF 393 [2],94%
same,growth at 1 µM,DU-145,90%
same,inhibition of growth at 10 µM,[3],20.4%
same,growth at 0.01 µM,BT-549 [4],114%
same,growth at 10 µM,T47D [5],61.6%
same,GI50,OVCAR-3; read-out: GI50,4.08 µM
same,CC50,OVCAR-3; [21],59.1 µM
same,TGI,OVCAR-3; read-out: TGI,19 µM
same,GI50,OVCAR-3; read-out: pGI50 (converted),4.07 µM
same,CC50,OVCAR-3; [22],58.9 µM
same,TGI,OVCAR-3; read-out: pTGI (converted),19.1 µM
same,growth at 0.01 µM,A498 [6],86%
same,growth at 1 µM,OVCAR-5,86%
same,growth at 10 µM,A498 [7],101%
same,growth at 10 µM,BT-549 [8],69.6%
same,growth at 0.01 µM,HOP-92,97%
same,growth at 1 µM,HT-29,82%
same,growth at 0.1 µM,T47D [9],96%
same,inhibition of growth at 10 µM,UO-31,58%
same,inhibition of growth at 10 µM,ACHN,56.1%
same,GI50,SF-539 [10]; read-out: GI50,4.75 µM
same,CC50,SF-539 [10]; [21],> 100 µM
same,TGI,SF-539 [10]; read-out: TGI,24.2 µM
same,GI50,SF-539 [10]; read-out: pGI50 (converted),4.79 µM
same,CC50,SF-539 [10]; [22],> 100 µM
same,TGI,SF-539 [10]; read-out: pTGI (converted),24 µM
same,inhibition of growth at 10 µM,OVCAR-8,44.9%
same,GI50,UACC-62; read-out: GI50,2.47 µM
same,CC50,UACC-62; [21],48.5 µM
same,TGI,UACC-62; read-out: TGI,14.2 µM
same,GI50,UACC-62; read-out: pGI50 (converted),2.45 µM
same,CC50,UACC-62; [22],49 µM
same,TGI,UACC-62; read-out: pTGI (converted),14.1 µM
same,growth at 10 µM,NCI-H460,47.1%
same,growth at 10 µM,LOX IMVI [11],51.2%
same,growth at 1 µM,786-0,92%
same,inhibition of growth at 10 µM,CCRF-CEM [12],74.7%
same,GI50,"[13]; HCC 2998, read-out: GI50",3.05 µM
same,CC50,"[13]; HCC 2998, read-out: LC50 (the source's name)",58.6 µM
same,TGI,"[13]; HCC 2998, read-out: TGI",13.4 µM
same,GI50,"[13]; HCC 2998, read-out: pGI50 (converted)",3.02 µM
same,CC50,"[13]; HCC 2998, read-out: pLC50 (the source's name) (converted)",58.9 µM
same,TGI,"[13]; HCC 2998, read-out: pTGI (converted)",13.5 µM
same,growth at 10 µM,SR,52.1%
same,growth at 1 µM,NCI-H322M,83%
same,inhibition of growth at 10 µM,LOX IMVI [14],48.8%
same,growth at 0.01 µM,SK-MEL-28,108%
same,GI50,SW-620 [15]; read-out: GI50,4 µM
same,CC50,SW-620 [15]; [21],> 100 µM
same,TGI,SW-620 [15]; read-out: TGI,36.1 µM
same,GI50,SW-620 [15]; read-out: pGI50 (converted),3.98 µM
same,CC50,SW-620 [15]; [22],> 100 µM
same,TGI,SW-620 [15]; read-out: pTGI (converted),36.3 µM
same,growth at 0.01 µM,SF-539 [16],93%
same,growth at 100 µM,IGROV-1,-23%
same,growth at 1 µM,SW-620 [17],83%
same,growth at 10 µM,NCI-H226,78.2%
same,growth at 1 µM,T47D [18],92%
same,GI50,A549; read-out: GI50,0.797 µM
same,CC50,A549; [21],> 100 µM
same,TGI,A549; read-out: TGI,15.6 µM
same,GI50,A549; read-out: pGI50 (converted),0.794 µM
same,CC50,A549; [22],> 100 µM
same,TGI,A549; read-out: pTGI (converted),15.5 µM
same,growth at 10 µM,MCF7,49.3%
same,inhibition of growth at 10 µM,M14,19.7%
same,inhibition of growth at 10 µM,SF-268,27%
same,growth at 0.01 µM,HOP-62,93%
same,inhibition of growth at 10 µM,RXF 393 [19],15.4%
same,growth at 10 µM,RXF 393 [20],84.6%
same,inhibition of growth at 10 µM,SN12C,57.4%
